Data on 26 molecules can be found in ChEMBL document CHEMBL4480435, “The impact of binding site waters on the activity/selectivity trade-off of Janus kinase 2 (JAK2) inhibitors” (Bioorg Med Chem, 2019).

Experiment [1] is filed under the species Homo sapiens. The experiment can be described thus: Selectivity ratio of IC50 for JAK1 (unknown origin) to IC50 for JAK2 (unknown origin).
Experiment [2] concerns the target T1, Tyrosine-protein kinase JAK1 (Homo sapiens, UniProt P23458). Nature of the experiment: Inhibition of JAK1 (unknown origin) after 1 hr by FRET-based Z'-Lyte assay.
The target in experiment [3] is T2, Tyrosine-protein kinase JAK2 (Homo sapiens, UniProt O60674). The experiment can be described thus: Inhibition of JAK2 (unknown origin) after 1 hr FRET-based Z'-Lyte assay.
The target of experiment [4] is T1, Tyrosine-protein kinase JAK1. The experiment can be described thus: Inhibition of JAK1 (unknown origin) at 20 uM after 1 hr by FRET-based Z'-Lyte assay.
For experiment [5] the target is unchanged. Nature of the experiment: Inhibition of JAK1 (unknown origin) at 10 uM after 1 hr by FRET-based Z'-Lyte assay.
Experiment [6] has as its target T2, Tyrosine-protein kinase JAK2.
Description: Inhibition of human recombinant JAK2 (808 to 1132 residues) by Z-Lyte assay
Experiment [7] deals with T1, Tyrosine-protein kinase JAK1.
Description: Inhibition of human recombinant JAK1 (852 to 1142 residues) by Z-Lyte assay

T1 sequence (P23458 whole entry): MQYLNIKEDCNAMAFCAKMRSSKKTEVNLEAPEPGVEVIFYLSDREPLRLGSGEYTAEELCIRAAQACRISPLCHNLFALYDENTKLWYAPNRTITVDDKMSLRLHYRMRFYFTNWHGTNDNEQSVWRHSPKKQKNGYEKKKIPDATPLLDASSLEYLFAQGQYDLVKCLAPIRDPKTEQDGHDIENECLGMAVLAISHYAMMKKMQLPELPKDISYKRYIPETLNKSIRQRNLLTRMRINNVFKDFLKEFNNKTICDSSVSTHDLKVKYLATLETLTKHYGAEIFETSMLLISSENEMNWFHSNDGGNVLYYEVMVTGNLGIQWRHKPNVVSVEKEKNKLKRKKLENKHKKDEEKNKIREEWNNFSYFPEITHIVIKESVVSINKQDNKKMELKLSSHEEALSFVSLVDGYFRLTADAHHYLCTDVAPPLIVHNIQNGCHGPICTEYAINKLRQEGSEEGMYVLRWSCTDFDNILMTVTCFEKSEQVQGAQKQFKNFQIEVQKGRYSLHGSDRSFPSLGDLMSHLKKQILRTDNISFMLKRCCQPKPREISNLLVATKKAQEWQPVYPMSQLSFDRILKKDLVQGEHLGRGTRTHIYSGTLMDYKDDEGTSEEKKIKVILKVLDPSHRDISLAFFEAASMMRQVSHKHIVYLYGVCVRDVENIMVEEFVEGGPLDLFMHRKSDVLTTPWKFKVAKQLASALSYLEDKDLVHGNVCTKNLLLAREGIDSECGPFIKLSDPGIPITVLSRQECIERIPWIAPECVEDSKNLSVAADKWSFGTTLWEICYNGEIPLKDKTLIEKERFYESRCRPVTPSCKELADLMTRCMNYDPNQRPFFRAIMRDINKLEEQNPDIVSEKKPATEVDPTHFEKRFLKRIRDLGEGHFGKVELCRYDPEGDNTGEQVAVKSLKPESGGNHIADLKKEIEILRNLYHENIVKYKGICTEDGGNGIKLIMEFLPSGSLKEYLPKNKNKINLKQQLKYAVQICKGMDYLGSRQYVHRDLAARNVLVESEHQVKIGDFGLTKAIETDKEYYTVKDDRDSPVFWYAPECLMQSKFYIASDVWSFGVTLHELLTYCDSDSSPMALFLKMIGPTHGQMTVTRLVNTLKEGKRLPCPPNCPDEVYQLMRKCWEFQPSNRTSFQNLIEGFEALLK
T2 sequence (O60674 whole entry): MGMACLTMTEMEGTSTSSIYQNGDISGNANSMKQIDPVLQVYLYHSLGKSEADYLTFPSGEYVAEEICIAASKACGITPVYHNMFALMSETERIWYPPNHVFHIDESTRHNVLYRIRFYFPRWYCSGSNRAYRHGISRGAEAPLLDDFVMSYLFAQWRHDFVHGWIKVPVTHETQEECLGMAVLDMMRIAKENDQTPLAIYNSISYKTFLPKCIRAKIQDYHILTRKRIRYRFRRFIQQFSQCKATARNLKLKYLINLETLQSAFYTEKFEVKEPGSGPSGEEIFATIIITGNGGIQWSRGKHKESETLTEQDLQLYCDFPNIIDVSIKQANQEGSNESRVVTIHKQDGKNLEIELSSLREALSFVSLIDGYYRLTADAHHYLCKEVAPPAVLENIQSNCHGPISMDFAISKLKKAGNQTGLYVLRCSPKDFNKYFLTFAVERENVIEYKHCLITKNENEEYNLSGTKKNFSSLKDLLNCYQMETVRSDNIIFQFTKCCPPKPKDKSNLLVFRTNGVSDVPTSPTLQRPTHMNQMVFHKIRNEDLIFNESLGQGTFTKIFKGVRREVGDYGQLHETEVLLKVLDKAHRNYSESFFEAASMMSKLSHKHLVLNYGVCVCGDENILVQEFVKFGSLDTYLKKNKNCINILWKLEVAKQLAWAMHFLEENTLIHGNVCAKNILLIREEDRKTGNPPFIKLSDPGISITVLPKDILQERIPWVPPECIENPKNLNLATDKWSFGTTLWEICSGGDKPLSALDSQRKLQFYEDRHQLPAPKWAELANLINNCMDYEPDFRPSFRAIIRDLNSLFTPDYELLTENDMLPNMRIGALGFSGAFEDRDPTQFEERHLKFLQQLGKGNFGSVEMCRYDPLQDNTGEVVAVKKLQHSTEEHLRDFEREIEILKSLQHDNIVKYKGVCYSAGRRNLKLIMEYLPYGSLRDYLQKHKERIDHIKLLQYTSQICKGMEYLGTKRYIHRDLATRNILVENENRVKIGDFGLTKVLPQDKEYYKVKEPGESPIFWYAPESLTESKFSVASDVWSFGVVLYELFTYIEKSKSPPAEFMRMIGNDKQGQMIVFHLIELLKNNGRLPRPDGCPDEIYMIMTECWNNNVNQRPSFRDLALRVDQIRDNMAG

As for `O=C(Nc1ccc2[nH]ncc2c1)c1cccc(-n2cnnn2)c1`, the Ratio IC50 in experiment [1] was 1. For the same molecule, the IC50 amounted to 764 nM in experiment [2] and 718 nM in experiment [3].

As for `O=C(Nc1ccc2[nH]ncc2c1)c1cccc(Cn2cnnn2)c1`, the inhibition in experiment [4] was determined as 20%.

As to `Clc1cccc(-n2cnnn2)c1-c1nc(-c2ccc3[nH]ncc3c2)cs1`, the Ratio IC50 in experiment [1] amounted to 12.8. The IC50 is 21600 nM in experiment [2] and 1680 nM in experiment [3].

For the molecule `Nc1n[nH]c2ccc(NC(=O)c3ccccc3-n3cnnn3)cc12`, the Ratio IC50 in experiment [1] stood at 5.3. Further, the IC50 in experiment [2] amounted to 33900 nM; in experiment [3] it was 6340 nM.

For the molecule `Nc1n[nH]c2ccc(C(=O)Nc3ccccc3Cl)cc12`, the Ratio IC50 in experiment [1] stood at 18. For the same molecule, the IC50 came to 2270 nM in experiment [2] and 126 nM in experiment [3].

As for `Nc1n[nH]c2ccc(C(=O)Nc3cc(Cl)ccc3Cl)cc12`, the Ratio IC50 in experiment [1] was determined as 11. The IC50 in experiment [2] stood at 414 nM; in experiment [3], 38 nM.

In the case of `O=C(Nc1ccc2[nH]ncc2c1)c1ccccc1`, the inhibition in experiment [4] was determined as 17%.

`CCNc1ccccc1C(=O)Nc1ccc2[nH]ncc2c1`: the Ratio IC50 in experiment [1] came to 6. For the same molecule, the IC50 in experiment [2] turned out to be 24100 nM; in experiment [3] it was 3960 nM.

With `Nc1n[nH]c2ccc(NC(=O)c3cc(Cl)ccc3Cl)cc12`, the Ratio IC50 in experiment [1] came to 6.57. Further, the IC50 worked out at 151 nM in experiment [2] and 23 nM in experiment [3].

With `Nc1n[nH]c2ccc(NC(=O)c3c(Cl)cccc3-n3cnnn3)cc12`, in experiment [5], the inhibition worked out at 10%. The molecule also registered an IC50 in experiment [3] of 76600 nM.

In the case of `CNS(=O)(=O)C[C@H]1CC[C@H](N(C)c2ncnc3[nH]ccc23)CC1` [OCLACITINIB], the half-maximal inhibitory concentration (IC50) in experiment [6] amounted to 18 nM; in experiment [7], 10 nM.

With `O=C(Nc1ccc2[nH]ncc2c1)c1ccccc1Cl`, the Ratio IC50 in experiment [1] was determined as 18.8. Also, the IC50 in experiment [2] was found to be 8530 nM; in experiment [3], 453 nM.

Take `Nc1n[nH]c2ccc(C(=O)Nc3c(Cl)cccc3Cl)cc12`: in experiment [1], the Ratio IC50 worked out at 16. Moreover, the figures for the IC50 in experiment [2] and in experiment [3] were 460 nM and 28 nM, respectively.

Regarding `c1ccc(-n2cnnn2)c(-c2cc(-c3ccc4[nH]ncc4c3)on2)c1`, in experiment [1], the Ratio IC50 was determined as 1.65. The IC50 in experiment [2] was found to be 3300 nM; in experiment [3] it was 2000 nM.

Regarding `c1ccc(-n2cnnn2)c(-c2cn(-c3ccc4[nH]ncc4c3)nn2)c1`, the Ratio IC50 in experiment [1] was determined as 0.9. Besides, the IC50 stood at 8800 nM in experiment [2] and 9530 nM in experiment [3].

As to `Nc1n[nH]c2ccc(-c3cnc(-c4ccccc4-n4cnnn4)s3)cc12`, in experiment [1], the Ratio IC50 is 2.85. In addition, the IC50 in experiment [2] was found to be 9290 nM; in experiment [3] it was 3250 nM.

For `Nc1n[nH]c2ccc(NC(=O)c3ccccc3)cc12`, in experiment [1], the Ratio IC50 was 3.78. Also, the IC50 in experiment [2] is 10500 nM; in experiment [3] it was 2780 nM.

For the molecule `O=C(Nc1ccc2[nH]ncc2c1)c1ccccc1-n1cnnn1`, in experiment [1], the Ratio IC50 turned out to be 14. Further, the IC50 is 33000 nM in experiment [2] and 2380 nM in experiment [3].

Regarding `Nc1n[nH]c2ccc(NC(=O)c3cccc(Cl)c3Cl)cc12`, the Ratio IC50 in experiment [1] was 3.67. Moreover, the IC50 came out at 1510 nM in experiment [2] and 411 nM in experiment [3].

`Nc1n[nH]c2ccc(NC(=O)c3cccc(Cl)c3)cc12`: the Ratio IC50 in experiment [1] was found to be 1.63. Further, the IC50 was 943 nM in experiment [2] and 583 nM in experiment [3].

Take `CCNc1ccccc1C(=O)Nc1ccc2[nH]nc(N)c2c1`: in experiment [1], the Ratio IC50 was 11. For the same molecule, the IC50 is 22000 nM in experiment [2] and 1970 nM in experiment [3].

With `O=C(Nc1ccc2[nH]ncc2c1)c1c(Cl)cccc1-n1cnnn1`, the Ratio IC50 in experiment [1] was 14. Besides, the results for the IC50 in experiment [2] and in experiment [3] were 11500 nM and 820 nM, respectively.

Take `c1ccc(-n2cnnn2)c(-c2nc(-c3ccc4[nH]ncc4c3)cs2)c1`: the Ratio IC50 in experiment [1] was found to be 5. In addition, the IC50 in experiment [2] worked out at 7940 nM; in experiment [3], 1540 nM.

On to `O=C(Nc1ccc2[nH]ncc2c1)c1ccccc1Cn1cnnn1`, for which, in experiment [1], the Ratio IC50 was determined as 2.7. Moreover, the IC50 is 9670 nM in experiment [2] and 3540 nM in experiment [3].

As for `Nc1n[nH]c2ccc(C(=O)Nc3ccccc3)cc12`, in experiment [1], the Ratio IC50 is 3.78. In addition, the IC50 is 10800 nM in experiment [2] and 3230 nM in experiment [3].

In the case of `Nc1n[nH]c2ccc(NC(=O)c3ccccc3Cl)cc12`, in experiment [1], the Ratio IC50 was determined as 18. The IC50 came to 1820 nM in experiment [2] and 101 nM in experiment [3].

Broadly, the IC50 is the concentration needed to halve the response being measured. Lower therefore signals greater potency in that assay. In general, inhibition refers to the relative decrease from the control value, in per cent. A high value points to a strong effect.
